In US20090208979A1, “Method for identifying antipsychotic drug candidates” (priority 2008, published 2009):
Read-outs that look alike come from different tables or passages of the source.

Legend:
ERK2 = conditions: whole cell lysates, normalized to total ERK2, vs control; for reduction of ERK2 phosphorylation: acute treatment, 15 minutes; for increase of ERK2 phosphorylation: chronic treatment, 7 days
GAD67 = type: cell-based, rat; conditions: whole cell lysates, vs control
PKCβ2 [1] = type: cell-based, rat
PKC [2] = test system: PKC
PKC [3] = test system: PKC; remark: listed apart in the source
PKCβ2 [4] = type: in vivo, rat; conditions: rats, chronic 14 days IP; frontal cortex; vs control
GAD67 mRNA = type: in vivo, rat; conditions: rats, 14 days daily IP (haloperidol 1 mg/kg, fluvoxamine 10 mg/kg, clozapine 10 mg/kg); frontal cortex; vs control
[5] = rats; haloperidol 1 mg/kg and fluvoxamine 10 mg/kg IP; cited from earlier work
PKCβ2 [6] = conditions: rat, in vivo, ip
[7] = test system: negative symptoms of schizophrenia; conditions: add-on to antipsychotic treatment; clinical studies; cited from earlier work
[8] = chronic treatment, 7 days, whole cell lysates, vs control
[9] = rats, chronic 14 days IP, frontal cortex, vs control
[10] = rats, 14 days daily IP (haloperidol 1 mg/kg, fluvoxamine 10 mg/kg, clozapine 10 mg/kg), frontal cortex, vs control

## CN1CCN(C2=Nc3cc(Cl)ccc3Nc3ccccc32)CC1 [clozapine]
ERK2
  reduction of ERK2 phosphorylation: 67%
  increase of ERK2 phosphorylation: 87%
GAD67; acute treatment, 15 minutes
  decrease of GAD67 protein level: 25%
GAD67; chronic treatment, 7 days
  decrease of GAD67 protein level: 73%
PKCβ2 [1]; acute treatment, 15 minutes, whole cell lysates, vs control
  decrease of PKCβ2 protein level: 31%
PKCβ2 [1]; [8]
  decrease of PKCβ2 protein level: 60%

## O=C(CCCN1CCC(O)(c2ccc(Cl)cc2)CC1)c1ccc(F)cc1 [haloperidol]
PKC [2]; 15 minutes treatment (FIG. 11A), whole cell lysates, normalized to β-actin, vs control
  increase of PKC phosphorylation level: 134%
PKC [3]; [9]
  increase of PKC phosphorylation in the membranal fraction: 45%
  increase of PKC phosphorylation in whole lysate: 38%
PKCβ mRNA; [10]
  PKCβ mRNA level: significantly increased
ERK2
  reduction of ERK2 phosphorylation: did not alter
  increase of ERK2 phosphorylation: did not alter
PKCβ2 [4]
  PKCβ2 protein level, whole tissue lysate: significantly increased
GAD67; acute treatment, 15 minutes
  decrease of GAD67 protein level: did not affect
GAD67; chronic treatment, 7 days
  decrease of GAD67 protein level: did not affect
GAD67 mRNA
  GAD67 mRNA level: significantly increased
[5]
  brain and serum concentrations when coadministered compared with given individually: not significantly changed
PKCβ2 [1]; [8]
  increase of PKCβ2 protein level: 106%
PKCγ mRNA; [10]
  PKCγ mRNA level: significantly increased

## COCCCC/C(=N\OCCN)c1ccc(C(F)(F)F)cc1 [fluvoxamine]
PKC [2]
  increase of PKC phosphorylation level: 156%
PKC [3]; rat, in vivo, ip
  increase of PKC phosphorylation in the membranal fraction: 50%
  increase of PKC phosphorylation in whole lysate: 40%
PKCβ mRNA; rat, in vivo
  PKCβ mRNA level: increased significantly
GAD67; chronic treatment, 7 days
  decrease of GAD67 protein level: 60%
PKCβ2 [1]
  increase of PKCβ2 protein level: did not affect
PKCβ2 [6]
  PKCβ2 level, cytosolic compartment: reduced level
PKCγ mRNA; rat, in vivo
  PKCγ mRNA level: increased significantly

## CNCCCC12CCC(c3ccccc31)c1ccccc12 [maprotiline]
[7]
  effect on negative symptoms of schizophrenia: did not improve negative symptoms
